This is an account of results in US20220304957A1, “ANTI-CANCER COMPOSITIONS AND METHODS OF USE” (Board of Supervisors of Louisiana State University and …, priority 2019, published 2022).

Entries after “also recorded” stand apart in the source; their conditions may differ.

Data set [1] can be described thus: Temozolomide pharmacokinetics and CNS penetration (literature). Format: in vivo, human. As to conditions: from 20% of plasma concentration. The source says:
An efficient treatment of GBM is difficult to develop for a series of reasons. First, GBM is characterized by many dysregulated pathways that can hardly be all blocked and repaired at the same time with a single therapy [Alifieris, C.; Trafalis, D. T. “Glioblastoma multiforme: pathogenesis and treatment” Pharmacol. Ther. 2015, 152, 63-82.]. Second, GBM partly consists of infiltrating cells that cannot easily be all removed by surgery. Third, GBM early diagnosis is not carried out routinely. Sensitive imaging techniques, such as MRI are still too expensive to be carried out on a regular basis over the whole population. Fourth, the optimization of a clinical protocol for GBM treatment requires the use of an accurate and representative preclinical GBM model. Currently used mouse and rat models are not appropriate because their tumors are typically ˜10^3-10^4 smaller than human GBM [Biasibetti, E.; Valazza, A.; Capucchio, M. T.; Annovazzi, L.; Battaglia. L.; Chirio, D.; Gallarate, M.; Mellai, M.; Muntoni, E.; Peira, E.; Riganti, C.; Schiffer, D.; Panciani, P.; Lanotte, M. “Comparison of Allogeneic and Syngeneic Rat Glioma Models by Using MRI and Histopathologic Evaluation” Comp. Med. 2017, 67, 147-156.]. […]

The conditions of data set [2]: cited from earlier work.
Data set [3] deals with PPAR responsive elements (PPRE). The data set is described as follows: PPAR luciferase assay (PPRE reporter) in HepG2 cells. Format: cell-based. As to conditions: 25 μM, 24 hrs. The protocol: Aliquots of 50 μM PP1 and FF in DMSO were added to 500 μl to heparinized human blood to a final concentration of 50 μM. Following incubation at 37° C. for the indicated time points, the samples were frozen at −80° C., and later prepared for HPLC-based detection of the compounds. Please note that FF is converted to FA in the presence of human blood. […] Data represent average values with standard deviation (n=3). panel B: Water solubility. FF and PP1, were added to water to a final concentration of 50 mM and sonicated in an ultrasonic bath (Branson 1510 Digital Heated Ultrasonic bath) for one hour at room temperature. The samples were then centrifuged for 10 minutes at 16000×g, and the supernatant filtered through 0.45 μm syringe filter. Water solubilized PP1 and FF were subsequently processed for HPLC analysis (see Methods). Data represent average values with standard deviation (n=3). panel C: Effects of PP compounds on PPAR responsive elements (PPRE). The PPAR transcriptional activity was determined in HepG2 cells by the JsTkpGL3 reporter plasmid, which contains a firefly luciferase gene driven by the PPRE, which consists of three copies of the J site from the apo-AII gene promoter. To normalize for efficiency of transfection the cells were additionally transfected with the pSV40-GLuc (New England Biolabs, Ipswich, Mass.) control plasmid. […] The luciferase activity was detected with Dual-Luciferase reporter assay system (Promega, Madison, Wis.), and the resulting luminescence measured with Synergy 2 microplate reader (BioTek, Winooski, Vt.). Data represent average values with standard deviation (n=6).
PPAR Luciferase Assay—The PPAR transcriptional activity was determined by utilizing the JsTkpGL3 reporter plasmid, which contains a firefly luciferase gene driven by the PPAR responsive element (PPRE), which consists of three copies of the J site from the apo-AII gene promoter. Together with JsTkpGL3 plasmid HepG2 cells were transfected with pSV40-GLuc (New England Biolabs, Ipswich, Mass.) control plasmid expressing Gaussia luciferase under the control of the constitutive SV40 early promoter to normalize for efficiency of transfection. […] The luciferase activity was detected with Dual-Luciferase reporter assay system (Promega, Madison, Wis.), and the resulting luminescence measured with Synergy 2 microplate reader (BioTek, Winooski, Vt.).

The nature of data set [4]: Stability of stock solution in DMSO. Format: physicochemical.
The subject of the next data set is LN-229 cells. The data set is described as follows: Cell morphology, peroxisome accumulation in LN-229. Format: cell-based, human. As to conditions: DMEM 1 g/L glucose, 10% FBS. The source says: Red arrows indicated accumulation of peroxisomes (black dot-like structures) around the nucleus in PP3-treated cells but not in control (DMSO). (LN229 cells, DMEM 1 g/L glucose 10% FBS P/S).

Data set [5] deals with LN-229 human glioblastoma cells. As to conditions: 10 μM.

In the case of `Cn1nnc2c(C(N)=O)ncn2c1=O` [TMZ, temozolomide], the “experimentally estimated log BB (Brain-Blood Distribution)” value in data set [1] is “around −0.7”. Also, in data set [2] (35 patients with malignant gliomas), the “concentration in brain and cerebrospinal fluid, % of the plasma concentration” value is “approximately 20%”. Further, the elimination half-life entry in data set [2] (oral administration) is listed as “approximately 1.8 hours”.

Take `CN(CC(O)C(O)C(O)C(O)CO)C(=O)C(C)(C)Oc1ccc(C(=O)c2ccc(Cl)cc2)cc1` [PP3, 2-[4-(4-chlorobenzoyl)phenoxy]-N,2-dimethyl-N-[(2S,3R,4R,5R)-2,3,4,5,6-pentahydroxyhexyl]propenamide]: the “effect on PPAR responsive elements (PPRE)” value in data set [3] is reported as “does not repress PPAR responsive elements; also recorded: does not share this PPAR-inhibitory activity”. Moreover, in data set [4], the “stability dissolved in DMSO” value was “quite unstable”. In the data set with LN-229 cells, the “accumulation of peroxisomes” value was “extensive accumulation of peroxisomes”. Also, in data set [5], the “cytostatic effect” value is recorded as “cytostatic activity”.
